Data from US12187755B2, “Minimal saponin analogues, synthesis and use thereof” (MEMORIAL SLOAN-KETTERING CANCER CENTER, priority 2014, dated 2025).
Entries after “also recorded” stand apart in the source; their conditions may differ.

What was measured:
[1] = in vivo fluorescence imaging with fluorescein-labeled saponin and OVA-A647; set-up: species or system mouse; settings: 24 h post-injection
Description: To address this problem, in vivo fluorescence imaging experiments with fluorescein-labeled active adjuvant 3 (SQS-0-0-5-12) and Alexa-647-conjugated OVA (OVA-A647) were conducted.
Whole-body imaging was performed at 24 h post-injection with a Maestro Imaging System. At 24 h post-injection, mice were sacrificed and the left and right lymph nodes were dissected and imaged separately.

[2] = in vivo; cited from earlier work
C57BL/6J mice [3] = test: preclinical mouse vaccination model, three-component vaccine (MUC1-KLH, OVA), antibody titers by ELISA; format: in vivo; settings: for antibody titers (anti-KLH, anti-MUC1, anti-OVA IgG): three-component vaccine MUC1-KLH + OVA, s.c. days 0, 7, 14, booster day 65, sera day 72
Description: A radioiodine (^131I) was introduced into the QS-21 saponin scaffold to enable in vivo biodistribution studies. The non-radiolabeled aryl iodide 6 (SQS-0-0-5-18) by acylation of amine 2 (SQS-0-0-5-11) was synthesized (FIG. 1B). Because no in vitro model exists to assess adjuvant activity, biological evaluation of aryl iodide 6 was carried out in a preclinical mouse vaccination model involving a multi-antigen formulation comprised of the immunogenic peptide MUC1 (prostate and breast cancer antigen, non-glycosylated tandem repeat) conjugated to the highly immunogenic KLH carrier protein (MUC1-KLH) and OVA, a reliable immunogen that induces both antibody and T-cell responses in mice. Antibody responses against each of the three antigens, co-administered with the adjuvant of interest, were determined by ELISA.
(§1) Groups of five mice (C57BL/6J, female, 6-8 weeks of age) were vaccinated with a three-component vaccine consisting of MUC1-KLH ([…]) and OVA ([…]), or a four-component vaccine that also included GD3-KLH ([…]). Antigens were co-administered with the adjuvant of interest ([…]) or without adjuvant (no-adjuvant control) in phosphate buffered saline (PBS, […]) via subcutaneous injections on days 0, 7, and 14, followed by a booster on day 65. Mouse sera were collected at day 72 and antibody titers against each antigen were determined by ELISA. Statistical significance of each antibody response compared to the no-adjuvant control was assessed using a two-tailed unpaired Student's t-test with CI=95%. As an initial, general assessment of toxicity, mouse weight loss was monitored on days 0, 1, 2, 3, and 7 after the first vaccination. These animal experiments were conducted as described in MSKCC Institutional Animal Care and Use Committee (IACUC) protocol #97-11-051.

[4] = toxicity assessment by mouse weight loss after first vaccination; format: in vivo; settings: for toxicity assessed by mouse weight loss: three-component vaccine, median percent weight loss
Description: as §1

[5] = in vivo biodistribution of radioiodinated saponins; set-up: species or system mouse; settings: with OVA, 24-96 h
Description: The aryl tin saponins (7, 9, 17, S9) were synthesized from the corresponding amine precursors (2, S4, 15, S8) by acylation with N-succinimidyl-4-(trimethylstannyl)benzoate 4 (Et3N, DMF, 21° C., 1-2.5 h). Radiolabeling was achieved by iodination of the aryl tin saponin (20 μg) with [^131I]—NaI and chloramine-T (methanol, 21° C., 1 min), followed by immediate HPLC purification. Solvents were removed by rotary evaporation at 35° C. and the radioiodinated probes were formulated in 0.9% saline for biodistribution studies. Co-elution of the radioiodinated probes with the corresponding cold saponins was used for quality control analysis.
Groups of five mice (naive, C57BL/6J female, 8-10 weeks of age) were injected subcutaneously with the radioiodinated saponin adjuvants of interest (˜[…]), the corresponding non-radiolabeled saponin ([…]), and OVA ([…]) in PBS ([…]). Mice were sacrificed at 24 h, 72 h, and 96 h post-injection. Tissues and organs were harvested and analyzed for distribution of radioactivity normalized to the weight of the organ (% ID/g, percent injected dose per gram). Statistical significance of the difference in recoveries (% ID/g) for the active and attenuated adjuvant was assessed for each tissue or organ using two-tailed unpaired Student's t-test with CI=95%.

mice = test: mouse vaccination with OVA antigen alone (FIG. 7B); format: in vivo; settings: OVA (20 μg)
Description: FIG. 7A: Synthesis of negative control saponin 8 (SQS-0-3-7-18): (i) SOCl2, pyridine, CH2Cl2/DMF, 21° C., 2 h, 91%; (ii) 1. H2 (50 psi), Pd/C (Degussa), THF/EtOH (1:1), 21° C., 24 h; 2. TFA/H2O (4:1), 0° C., 3.3 h, RP-HPLC, 50% (2 steps); (iii) 4, Et3N, DMF, 21° C., 3 h, RP-HPLC, 68%; (iv) 5, Et3N, DMF, 21° C., 2.5 h, RP-HPLC, 53%. FIG. 7B: Biological evaluation of aryl iodide saponin 8 with OVA antigen. Mice were vaccinated with OVA (20 μg) according to the general procedure discussed herein. Median titers represented as red horizontal bars. Statistical significance compared to SQS-21 was assessed using two-tailed unpaired Student's t-test with CI=95%: *=0.01≤p≤0.05 (significant).
Groups of five mice (C57BL/6J, female, 6-8 weeks of age) were vaccinated with a three-component vaccine consisting of MUC1-KLH ([…]) and OVA ([…]), or a four-component vaccine that also included GD3-KLH (5 mg). […] Mouse sera were collected at day 72 and antibody titers against each antigen were determined by ELISA. Statistical significance of each antibody response compared to the no-adjuvant control was assessed using a two-tailed unpaired Student's t-test with CI=95%. As an initial, general assessment of toxicity, mouse weight loss was monitored on days 0, 1, 2, 3, and 7 after the first vaccination. […]

C57BL/6J mice [6] = test: preclinical mouse vaccination model, four-component vaccine (MUC1-KLH, OVA, GD3-KLH), antibody titers by ELISA; format: in vivo; settings: 20 and 50 μg doses
Description: as §1
These saponin variants were evaluated with a four-component vaccine comprised of MUC1-KLH, OVA, and the poorly immunogenic glycolipid GD3 (melanoma, neuroblastoma, sarcoma antigen) conjugated to KLH (GD3-KLH) (FIGS. 5B-E; see FIG. 16 for full data with both 20 and 50 μg doses).

C57BL/6J mice [7] = test: antibody subtyping of anti-MUC1 and anti-OVA IgG by class-specific ELISA; format: in vivo, mouse
Text: Production of other mouse IgG subtypes, including IgG2a and IgG3, was low or negligible, as indicated by class-specific ELISA. Toxicity remained drastically lower for all four variants compared to NQS-21 and SQS-21 (FIG. 5f).

[8] = biodistribution of radioiodinated ovalbumin with and without adjuvant 6; format: in vivo, mouse; settings: presence and absence of active adjuvant 6
Description: In a complementary experiment, the biodistribution of [^131I]-OVA in the presence and absence of active adjuvant 6 was examined (FIG. 10). […] Thus, the influence of 6 upon OVA antigen biodistribution could not be assessed effectively and an alternative experimental approach was required.
Radiolabeled ovalbumin was synthesized by treating 20 μg of ovalbumin with [^131I]—NaI and Chloramine-T in methanol. The reaction mixture was diluted with 2 mL phosphate buffered saline (PBS) followed by centrifugal filtration at 2800 rpm for 12 min using a 30 kDa molecular weight cutoff filter. This process was repeated twice and the concentrated compound was then formulated in 1 mL 0.9% saline for biodistribution studies.

C[C@H]1O[C@@H](OC2C(O)C(NC(=O)CCCCCN)[C@H](CO)O[C@H]2OC(=O)C23CCC(C)(C)CC2C2=CCC4C5(C)CC[C@H](OC6OC(C(=O)O)[C@@H](O)[C@H](OC7OC[C@@H](O)[C@H](O)[C@@H]7O)[C@@H]6O[C@@H]6OC(CO)C(O)[C@@H](O)[C@@H]6O)[C@](C)(C=O)[C@@H]5CC[C@]4(C)[C@]2(C)C[C@@H]3O)C(O)C(O)C1O[C@@H]1OCC(O)C(O)C1O (stereo partly shown) [compound 2]
OVA-A647 at the site of injection when co-injected with the adjuvant [1]: observed at the site of injection
OVA-A647 localization to the nearest draining lymph nodes when co-injected with the adjuvant ([1]; dissected lymph nodes): increased accumulation of OVA-A647 with 3 but not 2
adjuvant activity [2]: inactive

C[C@H]1O[C@@H](OC2C(O)C(NC(=O)CCCCCNC(=O)c3ccc(I)cc3)[C@H](CO)O[C@H]2OC(=O)C23CCC(C)(C)CC2C2=CCC4C5(C)CC[C@H](OC6OC(C(=O)O)[C@@H](O)[C@H](OC7OC[C@@H](O)[C@H](O)[C@@H]7O)[C@@H]6O[C@@H]6OC(CO)C(O)[C@@H](O)[C@@H]6O)[C@](C)(C=O)[C@@H]5CC[C@]4(C)[C@]2(C)C[C@@H]3O)C(O)C(O)C1O[C@@H]1OCC(O)C(O)C1O (stereo partly shown) [compound 6]
antibody titers (anti-KLH, anti-MUC1, anti-OVA IgG) (C57BL/6J mice [3]): antibody titers comparable to both NQS-21
toxicity assessed by mouse weight loss [4]: reduced toxicity compared to QS-21
localization and retention at injection site and lymph nodes (conclusion) [5]: localizes to and is retained at the injection site and lymph nodes

CC1(C)CCC2(C(=O)NCCNC(=O)c3ccc(I)cc3)C(C1)C1=CCC3C4(C)CC[C@H](OC5OC(C(=O)O)[C@@H](O)[C@H](OC6OC[C@@H](O)[C@H](O)[C@@H]6O)[C@@H]5OC5OC(CO)[C@H](O)[C@H](O)[C@@H]5O)[C@](C)(C=O)[C@@H]4CC[C@]3(C)[C@]1(C)C[C@@H]2O (stereo partly shown) [compound 8]
adjuvant activity with OVA antigen (mice): poor adjuvant activity

C[C@@H]1O[C@@H](O[C@H]2[C@H](OC(=O)[C@]34CCC(C)(C)C[C@H]3C3=CC[C@@H]5[C@@]6(C)CC[C@H](O)[C@@](C)(C=O)[C@@H]6CC[C@@]5(C)[C@]3(C)C[C@H]4O)O[C@H](CO)[C@H](NC(=O)CCCCCNC(=O)c3ccc(I)cc3)[C@@H]2O)[C@H](O)[C@H](O)[C@H]1O[C@@H]1OC[C@@H](O)[C@H](O)[C@H]1O [compound 16]
KLH and MUC1 antibody responses (C57BL/6J mice [3]; three-component vaccine, exception anti-MUC1 titers at lower dose (20 μg)): comparable to those of parent aryl iodide 6, NQS-21, and SQS-21
toxicity assessed by mouse weight loss [4]: much lower toxicity than NQS-21 and SQS-21

C[C@H]1O[C@@H](OC2C(O)C(NC(=O)CCCCCNC(=O)c3ccc(I)cc3)[C@H](CO)O[C@H]2OC(=O)[C@]23CCC(C)(C)CC2C2=CCC4C5(C)CC[C@H](O)C(C)(C)[C@@H]5CC[C@]4(C)[C@]2(C)CC3)C(O)C(O)C1O[C@@H]1OCC(O)C(O)C1O (stereo partly shown) [compound 18]
antibody titers (anti-KLH, anti-MUC1, anti-OVA IgG) (C57BL/6J mice [3]): lower antibody titers against all three antigens compared to the parent quillaic acid derivative 16
toxicity assessed by mouse weight loss [4]: low toxicity

C[C@H]1O[C@@H](OC2C(O)C(NC(=O)CCCCCNC(=O)c3ccc(I)cc3)[C@H](CO)O[C@H]2OC(=O)[C@]23CCC(C)(C)CC2C2=CCC4C5(C)CC[C@H](O)[C@](C)(CO)[C@@H]5CC[C@]4(C)[C@]2(C)CC3O)C(O)C(O)C1O[C@@H]1OCC(O)C(O)C1O (stereo partly shown) [compound 19]
antibody responses (anti-KLH, anti-MUC1, anti-OVA IgG, anti-GD3 IgM and IgG) (C57BL/6J mice [6]): antibody titers slightly below those of echinocystic acid derivative 20; also recorded: antibody responses similar to the complete, branched trisaccharide-containing saponin 6
IgG subtypes of anti-MUC1 and anti-OVA antibodies (C57BL/6J mice [7]): significant bias toward the mouse IgG1 and IgG2b subtype

C[C@H]1O[C@@H](OC2C(O)C(NC(=O)CCCCCNC(=O)c3ccc(I)cc3)[C@H](CO)O[C@H]2OC(=O)C23CCC(C)(C)CC2C2=CCC4C5(C)CC[C@H](O)C(C)(C)[C@@H]5CC[C@]4(C)[C@]2(C)C[C@@H]3O)C(O)C(O)C1O[C@@H]1OCC(O)C(O)C1O (stereo partly shown) [compound 20]
antibody responses (anti-KLH, anti-MUC1, anti-OVA IgG, anti-GD3 IgM and IgG) (C57BL/6J mice [6]): highest antibody responses to all four antigens; also recorded: immunostimulatory activity generally rivaling that of SQS-21
toxicity (mouse weight loss) ([4]; four-component vaccine, one week after first injection): dramatically reduced toxicity compared to the natural product
IgG subtypes of anti-MUC1 and anti-OVA antibodies (C57BL/6J mice [7]): significant bias toward the mouse IgG1 and IgG2b subtype

C[C@H]1O[C@@H](OC2C(O)C(NC(=O)CCCCCNC(=O)c3ccc(I)cc3)[C@H](CO)O[C@H]2OC(=O)C23CCC(C)(C)CC2C2=CCC4C5(C)CC[C@H](O)[C@](C)(C=O)[C@@H]5CC[C@]4(C)[C@]2(C)CC3)C(O)C(O)C1O[C@@H]1OCC(O)C(O)C1O (stereo partly shown) [compound 21]
antibody responses (anti-KLH, anti-MUC1, anti-OVA IgG, anti-GD3 IgM and IgG) (C57BL/6J mice [6]): lower antibody responses in all cases except the anti-GD3 IgG response

C[C@@H]1O[C@@H](O[C@H]2[C@H](OC(=O)[C@]34CCC(C)(C)C[C@H]3C3=CC[C@@H]5[C@@]6(C)CC[C@H](O)[C@@](C)(CO)[C@@H]6CC[C@@]5(C)[C@]3(C)CC4)O[C@H](CO)[C@H](NC(=O)CCCCCNC(=O)c3ccc(I)cc3)[C@@H]2O)[C@H](O)[C@H](O)[C@H]1O[C@@H]1OC[C@@H](O)[C@H](O)[C@H]1O [compound 22]
antibody responses (anti-KLH, anti-MUC1, anti-OVA IgG, anti-GD3 IgM and IgG) (C57BL/6J mice [6]): lower antibody responses in all cases except the anti-GD3 IgG response

B1: [131I]-OVA: radioiodinated ovalbumin antigen (protein, UniProt P01012 2-386, looked up)
Ovalbumin: GSIGAASMEFCFDVFKELKVHHANENIFYCPIAIMSALAMVYLGAKDSTRTQINKVVRFDKLPGFGDSIEAQCGTSVNVHSSLRDILNQITKPNDVYSFSLASRLYAEERYPILPEYLQCVKELYRGGLEPINFQTAADQARELINSWVESQTNGIIRNVLQPSSVDSQTAMVLVNAIVFKGLWEKAFKDEDTQAMPFRVTEQESKPVQMMYQIGLFRVASMASEKMKILELPFASGTMSMLVLLPDEVSGLEQLESIINFEKLTEWTSSNVMEERKIKVYLPRMKMEEKYNLTSVLMAMGITDVFSSSANLSGISSAESLKISQAVHAAHAEINEAGREVVGSAEAGVDAASVSEEFRADHPFLFCIKHIATNAVLFFGRCVSP
modifications: 131I radiolabel
notes: radioiodinated ovalbumin antigen
thyroid uptake of [131I]-OVA [8]: thyroid uptake was also high
